Where a SMILES comes first, the peptide text is derived from it. [ ]: non-standard residue; d: D form. The star is where a group is joined. Dolaproine = CO[C@@H]([C@@H]1CCCN1)[C@@H](C)C(=O)O; Dil = CC[C@H](C)[C@H](NC)[C@@H](CC(=O)O)OC; X1 = C[C@@H](N*)[C@@H](O)c1ccccc1; NMeV = CN[C@H](C(=O)O)C(C)C
What was measured:
CYP3A4 = CYP3A4 (Homo sapiens, UniProt P08684); test: In vitro metabolism of unconjugated MMAE; assay type: in vitro ADME; conditions: in vitro data
Text: (§1) Based on a validated physiological-based PK model simulation, strong CYP3A4 inhibitors may increase the exposure (e.g., area under the concentration-time curve) of unconjugated MMAE by ˜50% while acMMAE PK is not affected. Concomitant medications that are strong CYP3A4 inhibitors are considered cautionary as they may potentially lead to adverse reactions, which require close monitoring. […] Concomitant medications that are P-gp inhibitors are considered cautionary as they may potentially lead to adverse reactions, which require close monitoring.

P-glycoprotein (P-gp) = P-glycoprotein (P-gp) (Homo sapiens, UniProt P08183); test: P-glycoprotein substrate / inhibitor status; assay type: in vitro ADME
Chain of P-glycoprotein (P-gp) (P08183 whole entry): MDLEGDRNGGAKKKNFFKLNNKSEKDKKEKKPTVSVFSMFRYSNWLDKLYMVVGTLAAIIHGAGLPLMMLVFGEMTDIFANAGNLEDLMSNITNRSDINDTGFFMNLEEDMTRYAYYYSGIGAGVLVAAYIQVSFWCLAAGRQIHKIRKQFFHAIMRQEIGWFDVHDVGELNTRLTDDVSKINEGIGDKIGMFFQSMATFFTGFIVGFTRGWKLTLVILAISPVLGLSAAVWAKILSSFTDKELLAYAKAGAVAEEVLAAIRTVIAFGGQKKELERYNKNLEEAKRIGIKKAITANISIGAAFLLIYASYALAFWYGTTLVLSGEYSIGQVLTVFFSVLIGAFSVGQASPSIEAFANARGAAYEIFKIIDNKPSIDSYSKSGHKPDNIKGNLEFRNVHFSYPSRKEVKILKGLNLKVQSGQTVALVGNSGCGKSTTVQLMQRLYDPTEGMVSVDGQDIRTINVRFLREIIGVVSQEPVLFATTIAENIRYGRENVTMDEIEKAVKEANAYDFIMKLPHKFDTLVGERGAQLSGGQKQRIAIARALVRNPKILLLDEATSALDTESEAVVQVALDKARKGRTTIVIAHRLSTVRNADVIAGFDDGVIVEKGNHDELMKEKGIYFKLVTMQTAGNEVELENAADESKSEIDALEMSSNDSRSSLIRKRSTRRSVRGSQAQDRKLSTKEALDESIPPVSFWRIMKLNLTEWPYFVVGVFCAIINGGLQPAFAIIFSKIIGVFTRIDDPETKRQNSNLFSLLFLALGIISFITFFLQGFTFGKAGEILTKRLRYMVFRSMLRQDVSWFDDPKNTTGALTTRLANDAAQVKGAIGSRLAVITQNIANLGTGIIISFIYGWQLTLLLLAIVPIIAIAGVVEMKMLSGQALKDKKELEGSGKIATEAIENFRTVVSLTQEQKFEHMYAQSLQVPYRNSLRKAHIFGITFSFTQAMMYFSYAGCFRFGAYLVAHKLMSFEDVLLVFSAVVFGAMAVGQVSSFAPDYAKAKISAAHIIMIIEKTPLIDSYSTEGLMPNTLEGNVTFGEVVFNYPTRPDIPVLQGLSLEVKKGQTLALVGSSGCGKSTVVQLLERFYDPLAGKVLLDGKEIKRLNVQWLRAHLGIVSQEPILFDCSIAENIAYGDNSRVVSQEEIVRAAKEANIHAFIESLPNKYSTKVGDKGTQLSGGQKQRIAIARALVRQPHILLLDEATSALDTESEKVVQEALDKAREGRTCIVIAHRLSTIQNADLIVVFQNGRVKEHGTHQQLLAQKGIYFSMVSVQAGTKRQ
Text: as §1

Chain of CYP3A4 (P08684 whole entry): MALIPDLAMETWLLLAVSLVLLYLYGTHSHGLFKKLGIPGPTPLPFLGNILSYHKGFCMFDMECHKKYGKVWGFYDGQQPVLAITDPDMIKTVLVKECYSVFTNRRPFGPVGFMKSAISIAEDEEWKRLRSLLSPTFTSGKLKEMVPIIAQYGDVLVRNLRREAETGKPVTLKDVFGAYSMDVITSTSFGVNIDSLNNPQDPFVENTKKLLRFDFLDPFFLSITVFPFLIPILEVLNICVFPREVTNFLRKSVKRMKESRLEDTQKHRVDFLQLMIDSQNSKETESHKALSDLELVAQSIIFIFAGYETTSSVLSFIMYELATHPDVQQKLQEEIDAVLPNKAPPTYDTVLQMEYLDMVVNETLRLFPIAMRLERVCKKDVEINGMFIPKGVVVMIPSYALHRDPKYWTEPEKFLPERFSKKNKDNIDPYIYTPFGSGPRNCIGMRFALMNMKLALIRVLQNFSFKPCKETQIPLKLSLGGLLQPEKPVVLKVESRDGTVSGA

CC[C@H](C)[C@@H]([C@@H](CC(=O)N1CCC[C@H]1[C@H](OC)[C@@H](C)C(=O)N[C@H](C)[C@@H](O)c1ccccc1)OC)N(C)C(=O)[C@@H](NC(=O)[C@@H](NC)C(C)C)C(C)C [MMAE, monomethylauristatin E] (H-[NMeV]V[Dil][Dolaproine]-X1)
metabolism of unconjugated MMAE by CYP3A4 (CYP3A4): mainly metabolized by CYP3A4 | P-gp inhibitor (P-glycoprotein (P-gp)): not a P-gp inhibitor
